Reference: patent publication US12172989B2, “Histone acetyltransferase (HAT) inhibitor and use thereof” (SHANGHAI INSTITUTE OF MATERIA MEDICA, CHINESE ACADEMY OF …, priority 2018, dated 2024)

Columns and labels:
[1] = tested on: Human castration resistant prostate cancer cell line 22Rv1; test: Cell growth inhibition experiment (CellTiter-Glo), 22Rv1; format: cell-based; conditions: 22Rv1 cells treated with the compound for 5 days
Experimental: (§1) Human castration resistant prostate cancer cell line 22Rv1 and LNCaP clone FGC (22Rv1 cell line was from ATCC, CRL-2505, LNCaP clone FGC cell line was purchased from Cell Bank of the Chinese Academy of Sciences) were cultured with RPMI 1640 medium (Gibco, available from Life Technologies Corporation, 22400-089) containing 10% fetal bovine serum (Gibco, available from Life Technologies, 10099-141) and 1% antibiotics (penicillin and streptomycin, available from Life Technologies Corporation, 10378016) in a CO2 cell incubator (37° C., 5% CO2). In the cell growth inhibition experiment, 22Rv1 and LNCaP clone FGC cells in exponential growth phase were seeded on a 96-well plate (purchased from Corning Company, 3599) with a volume of 150 μL/well and a cell density of 1,500 cells/well. After seeded, the plate was placed in a CO2 incubator to incubate overnight to allow the cells to adhere. On the next day, 50 μL of a compound at different concentrations diluted in 3-fold gradient or DMSO were added in a 96-well plate containing the cells. The final concentration of the compound ranges from 0.3 to 10000 nM, and the final concentration of DMSO is 0.05% as control group. The cells were treated by the compound for 5 days. Cell viability was measured using CellTiter-Glo reagent (purchased from Promega, G7572): the cell treated with the compound for 5 days was added with CellTiter-Glo reagent at 40 μL/well, incubated at room temperature for 10 min, transferred to a white 96-well plate (OptiPlate-96, purchased from PerkinElmer, 605299) by 70 μL. Subsequently, the luminescence signal was detected using a multifunctional microplate reader EnVision (purchased from PerkinElmer) at a wavelength of 400-700 nm. The data was analyzed by using GraphPad Prism 5.0 software to obtain IC50.

[2] = tested on: human mantle cell lymphoma (MCL) cell line MAVER-1; test: Cell growth inhibition experiment (CellTiter-Glo), MAVER-1; format: cell-based; conditions: MAVER-1 cells treated with the compound for 5 days
Experimental: The human mantle cell lymphoma (MCL) cell line MAVER-1 (from ATCC, CRL-3008) was cultured with RPMI 1640 medium (Gibco, available from Life Technologies Corporation, 22400-089) containing […] (Gibco, available from Life Technologies, 10099-141) and 1% antibiotics (penicillin and streptomycin, available from Life Technologies Corporation, 10378016) in a CO2 cell incubator (37° C., 5% CO2). In the cell growth inhibition experiment, MAVER-1 cells in exponential growth phase were seeded on a 96-well plate (purchased from Corning Company, 3599) in a volume of 100 μL/well and a cell density of 1*10E5 cells/well. After seeded, the plate was placed in a CO2 incubator to culture for 1 h. 100 μL of a compound at different concentrations diluted in 3-fold gradient or DMSO were added in a 96-well plate containing the cells. The final concentration of the compound ranges from 0.3 to 10000 nM, and the final concentration of DMSO is 0.05% as control group. The cells were treated with the compound for 5 days. Cell viability was measured using CellTiter-Glo reagent (purchased from Promega, G7572): the cells treated with the compound for 5 days was added with CellTiter-Glo reagent at 20 μL/well, incubated at room temperature for 10 min, transferred to a white 96-well plate (OptiPlate-96, purchased from PerkinElmer, 605299) by 80 μL. Subsequently, the luminescence signal was detected by using a multifunctional microplate reader EnVision (purchased from PerkinElmer) at a wavelength of 400-700 nm. The data was analyzed by using GraphPad Prism 5.0 software to obtain IC50.

[3] = tested on: Human castration resistant prostate cancer cell line LNCaP clone FGC; test: Cell growth inhibition experiment (CellTiter-Glo), LNCaP clone FGC; format: cell-based; conditions: LNCaP clone FGC cells treated with the compound for 5 days
Experimental: as §1

[4] = target: T1, histone acetyltransferase p300 (Homo sapiens, UniProt Q09472); test: Histone acetyltransferase (p300) activity assay (radioisotope, [3H]-Ac-CoA); format: biochemical; conditions: p300 0.05 nM; histone peptide 600 nM, [3H]-Ac-CoA 250 nM; 60 min at room temperature; read-out: Inhibition rate IC50
T1 construct: purchased BPS Corporation 50071
T1 sequence (Q09472 1284-1673 limits assumed): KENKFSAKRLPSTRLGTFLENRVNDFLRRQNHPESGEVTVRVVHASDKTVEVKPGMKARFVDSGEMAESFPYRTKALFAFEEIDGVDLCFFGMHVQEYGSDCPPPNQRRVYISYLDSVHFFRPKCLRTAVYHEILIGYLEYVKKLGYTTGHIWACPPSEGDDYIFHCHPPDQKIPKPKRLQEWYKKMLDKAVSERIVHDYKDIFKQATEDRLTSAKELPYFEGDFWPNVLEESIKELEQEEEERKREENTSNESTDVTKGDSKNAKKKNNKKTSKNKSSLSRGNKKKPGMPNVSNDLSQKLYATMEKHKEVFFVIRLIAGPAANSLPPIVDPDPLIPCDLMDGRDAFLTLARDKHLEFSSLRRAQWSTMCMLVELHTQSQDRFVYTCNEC
Experimental: The reaction was finally terminated with Ac-CoA (Sigma, Cat. No. A2056) without isotope labeling. If the activity of the acetyltransferase p300 was inhibited, the isotope signal cannot be detected on the substrate polypeptide. Therefore, the inhibitory activity of the compound against the acetyltransferase p300 was evaluated.
In the enzyme reaction system, 200 nL of a diluted compound (100% DMSO) was first transferred to a test plate using Echo, where the final concentration of the compound in the enzyme reaction system ranges from 0.25 to 5000 nM. Then 10 μL/well of p300 protein (final concentration of 0.05 nM) was transferred therein, and incubated with the compound for 15 min at room temperature. Then 10 μL/well of a substrate mixture (final concentrations of histone peptide and [^3H]—Ac-CoA were 600 nM and 250 nM, respectively) was added to start the enzyme-catalyzed reaction, and incubated at room temperature for 60 min. Then 10 µL/well of a 250 μM cold Ac-CoA solution was added to stop the reaction. Finally 25 μL/well of the reaction solution was transferred to a 384-well Flashplate (Perkin Elmer, Cat. No. SMP410A001PK), and incubated at room temperature for 1 h. The resultant was washed with double distilled water+0.1% Tween-20 three times. The signal value was read by using Microbeta. The data was analyzed by using GraphPad Prism 5.0 software to obtain IC50.

SMILES	IC50 ([1]; Homo sapiens, 120 h) [nM]	IC50 ([2]; Homo sapiens, Maver1, 120 h) [nM]	IC50 ([3]; Homo sapiens, 120 h) [nM]	IC50 [4] [nM]	IC50 [1] [nM]	IC50 [2] [nM]	IC50 [3] [nM]
CNC(=O)Nc1ccc2c(c1)CC[C@]21OC(=O)N(CC(=O)N2Cc3ccccc3CC[C@H]2C2CC2)C1=O [SYY-B018-1]	88	49	73	3.3	–	–	–
CNC(=O)Nc1ccc2c(c1)CC[C@@]21OC(=O)N(CC(=O)N2Cc3ccccc3CC[C@H]2C(C)C)C1=O [SYY-B019-2]	5	17	9	2	–	–	–
CNC(=O)Nc1ccc2c(c1)CC[C@]21OC(=O)N(CC(=O)N2Cc3ccccc3CC[C@H]2C(C)C)C1=O [SYY-B019-1]	205	40	186	2.7	–	–	–
CNC(=O)Nc1ccc2c(c1)CC[C@@]21OC(=O)N(CC(=O)N2Cc3ccc(F)cc3CC[C@@H]2C2CC2)C1=O [SYY-B026-2]	358	254	132	18	–	–	–
CNC(=O)Nc1ccc2c(c1)CC[C@]21OC(=O)N(CC(=O)N2Cc3ccc(F)cc3CC[C@H]2C)C1=O [SYY-B021-1]	107	32	63	3	–	–	–
CNC(=O)Nc1ccc2c(c1)CC[C@@]21OC(=O)N(CC(=O)N2Cc3ccccc3CC[C@H]2C2CC2)C1=O [SYY-B018-2]	5	6	6	0.67	–	–	–
CNC(=O)Nc1ccc2c(c1)CC[C@@]21OC(=O)N(CC(=O)N2Cc3ccc(F)cc3CC[C@H]2C(F)(F)F)C1=O [SYY-B031-2]	23	18	66	1.9	–	–	–
CNC(=O)Nc1ccc2c(c1)CC[C@@]21OC(=O)N(CC(=O)N(Cc2ccc(F)cc2)[C@@H](C)C(F)(F)F)C1=O [Example A-485, reference compound]	–	–	–	–	384	206	215
CNC(=O)Nc1ccc2c(c1)CC[C@]21OC(=O)N(CC(=O)N2Cc3ccccc3CC[C@H]2C)C1=O [SYY-B015-1]	345	104	168	12	–	–	–
CNC(=O)Nc1ccc2c(c1)CC[C@]21OC(=O)N(CC(=O)N2Cc3ccc(F)cc3CC[C@H]2C2CC2)C1=O [SYY-B025-1]	79	44	67	1.6	–	–	–
CNC(=O)Nc1ccc2c(c1)CC[C@@]21OC(=O)N(CC(=O)N2Cc3ccccc3CC[C@H]2C(F)(F)F)C1=O [SYY-B027-2]	23	13	14	3.1	–	–	–
CNC(=O)Nc1ccc2c(c1)CC[C@]21OC(=O)N(CC(=O)N2Cc3cc(F)ccc3OC[C@H]2C2CC2)C1=O [SYY-B029-1]	146	66	82	4.1	–	–	–
CNC(=O)Nc1ccc2c(c1)CC[C@]21OC(=O)N(CC(=O)N2Cc3ccc(F)cc3CC[C@H]2C(F)(F)F)C1=O [SYY-B031-1]	210	61	91	1.8	–	–	–

Continued by falling IC50 ([3]; Homo sapiens, 120 h), values first:

IC50 ([1]; Homo sapiens, 120 h) [nM]	IC50 ([2]; Homo sapiens, Maver1, 120 h) [nM]	IC50 ([3]; Homo sapiens, 120 h) [nM]	IC50 [4] [nM]	IC50 [1] [nM]	IC50 [2] [nM]	IC50 [3] [nM]	SMILES
258	112	164	–	–	–	–	CNC(=O)Nc1ccc2c(c1)CCC21OC(=O)N(CC(=O)N2Cc3ccccc3CCC2C)C1=O (stereo not drawn) [SYY-B003]
50	23	65	4	–	–	–	CCC[C@@H]1CCc2ccccc2CN1C(=O)CN1C(=O)O[C@]2(CCc3cc(NC(=O)NC)ccc32)C1=O [SYY-B023-1]
77	116	53	24	–	–	–	CCC[C@H]1CCc2ccccc2CN1C(=O)CN1C(=O)O[C@@]2(CCc3cc(NC(=O)NC)ccc32)C1=O [SYY-B024-2]
33	18	15	3.7	–	–	–	CNC(=O)Nc1ccc2c(c1)CC[C@@]21OC(=O)N(CC(=O)N2Cc3ccccc3CC[C@H]2C)C1=O [SYY-B015-2]
24	22	13	3	–	–	–	CNC(=O)Nc1ccc2c(c1)CC[C@@]21OC(=O)N(CC(=O)N2Cc3ccc(F)cc3CC[C@H]2C)C1=O [SYY-B021-2]
–	15	13	1.4	–	–	–	CNC(=O)Nc1ccc2c(c1)CC[C@@]21OC(=O)N(CC(=O)N2Cc3cc(F)ccc3OC[C@H]2C2CC2)C1=O [SYY-B029-2]
9	9	11	1.1	–	–	–	CNC(=O)Nc1ccc2c(c1)CC[C@@]21OC(=O)N(CC(=O)N2Cc3ccc(F)cc3CC[C@H]2C2CC2)C1=O [SYY-B025-2]
13	–	6	1	–	–	–	CC(C)(N)C(=O)Nc1ccc2c(c1)CC[C@@]21OC(=O)N(CC(=O)N2Cc3ccc(F)cc3CC[C@H]2C2CC2)C1=O [SYY-B038-1]
3	12	4	2	–	–	–	CCC[C@@H]1CCc2ccccc2CN1C(=O)CN1C(=O)O[C@@]2(CCc3cc(NC(=O)NC)ccc32)C1=O [SYY-B023-2]
